Like-named read-outs stand apart in the source and are kept apart here.
Legend:
[1] = Ocular distribution of CDO in rats, single dose topical ocular vs. oral; assay type: in vivo, Sprague Dawley (SD) rat; parameters: key to CDO concentrations Retina / CDO concentrations Optic nerve: —: non-detectable; settings: for concentration at 1 h / concentration at 6 h / concentration at 0.25 h / concentration at 3 h: Sprague-Dawley
Description: In Sprague Dawley (SD) rat, weighing approximately 200 g, CDO was administered by topical ocular instillation (10 μl/eye) at 10 mg/ml (composition 2 of Example 1), at 100 mg/ml (composition 5 of Example 1) or by oral gavage at 50 mg/kg, at 200 mg/kg or at 750 mg/kg in aqueous solution (from compositions 1, 3 and 4, respectively, of Example 1). At 15, 60, 180 and 360 minutes post-administration, animals were euthanized and plasma and ocular tissues including sclera, cornea, retina, vitreous humour/lens and optic nerve were collected.
(§1) Bioanalysis of CDO was performed depending on the type of matrix. In the case of plasma, proteins were precipitated using methanol. In the case of tissues, samples were grinded in a Mini Bead Beater using zirconium beads and methanol/water (1:1) (v/v) as solvent. After centrifugation, samples were analyzed by UPLC-MS/MS.
(§2) Chromatographic separation was carried out using an Acquity CSH Fluoro Phenyl column (1.7 μm, 50×2.1 mm). Mobile phase consisted of a gradient using 0.1% formic acid in water and acetonitrile from 5% to 45% in 4.5 min at a flow rate of 0.6 ml/min.
(§3) With regard to the mass spectrometric detection, the electrospray ionization source worked to record negative ions. Multiple Reaction Monitoring (MRM) acquisition mode of the deprotonated molecular ions was performed. The transition monitored for CDO was m/z 189.0→80.1 with a cone voltage of 45 V and collision energy of 25 eV.

[2] = Ocular distribution of etamsylate following topical ocular single dose in rats; assay type: in vivo, Sprague Dawley (SD) rat; settings: Sprague-Dawley, rat
Description: as §1, §2, §3
At 15, 60 and 180 minutes post-administration, animals were euthanized and ocular tissues including retina, and optic nerve were collected.
As described in Example 2.

[3] = tested on: diabetic rats induced by streptozotocin; assay: Retinal vascularity (Evans Blue staining) in diabetic retinopathy model induced by streptozotocin; assay type: in vivo, SD male rats; settings: diabetic rats (group III), CDO 10 mg/ml topical 10 μl/eye TID 28 days
Description: Diabetes was induced in SD male rats by single intraperitoneal injection of streptozotocin (STZ) at 60 mg/kg body weight in citrate buffer (pH 4.5). Seven days after STZ administration, blood glucose was measured and the level of 250 mg/dl was considered the threshold value to consider diabetes induction. Ophthalmic treatment with CDO at 10 mg/ml (topical instillation of 10 μl/eye) was initiated once hyperglycemia was confirmed and continued for 28 days three times a day (TID). Rats were randomly divided in 3 groups: I. Control (non-diabetic), II. Diabetic rats with no treatment and III. Diabetic rats with CDO at 10 mg/ml.
At day 29 CDO was instilled a single time at 10 mg/ml in the group III, rats were euthanized and retinas were collected 15 minutes post-administration.
Retinal vascularity was observed by Evans Blue (EB) staining, based on the ability of EB to bind serum albumin immediately after intravenous injection. Thus Evans Blue 3% was injected through the tail vein at 1 ml/kg at 60 minutes before euthanasia at day 29. Eyeballs were fixed in paraformaldehyde 4%. Retinas were immediately after dissected and mounted in slides and observed by fluorescence microscopy.

[4] = rat, oral 50 mg/Kg = 10 mg, 0.25 h
[5] = rat, oral 50 mg/Kg = 10 mg, 1 h
[6] = rat, topical eye 10 mg/ml (eye drop of 10 μl) = 0.1 mg, 3 h
[7] = optic nerve, 0.126 mg, read-out: CDO μg/g tissue Optic nerve
[8] = optic nerve, 1.26 mg, read-out: CDO μg/g tissue Optic nerve
[9] = retina, 0.126 mg, read-out: CDO μg/g tissue Retina
[10] = retina, 1.26 mg, read-out: CDO μg/g tissue Retina

O=S(=O)(O)c1cc(O)ccc1O [CDO, Calcium dobesilate monohydrate]
concentration at 1 h ([1]; optic nerve, rat, topical eye 10 mg/ml (eye drop of 10 μl) = 0.1 mg, 1 h, read-out: CDO concentrations Optic nerve): 850 ng/g
concentration at 6 h ([1]; optic nerve, rat, topical eye 10 mg/ml (eye drop of 10 μl) = 0.1 mg, 6 h, read-out: CDO concentrations Optic nerve): 250 ng/g
concentration at 0.25 h ([1]; optic nerve, rat, topical eye 100 mg/ml (eye drop of 10 μl) = 1 mg, 0.25 h, read-out: CDO concentrations Optic nerve): 13700 ng/g
concentration at 1 h ([1]; optic nerve, rat, topical eye 100 mg/ml (eye drop of 10 μl) = 1 mg, 1 h, read-out: CDO concentrations Optic nerve): 2910 ng/g
concentration at 3 h ([1]; optic nerve, rat, topical eye 100 mg/ml (eye drop of 10 μl) = 1 mg, 3 h, read-out: CDO concentrations Optic nerve): 1920 ng/g
concentration at 6 h ([1]; optic nerve, rat, topical eye 100 mg/ml (eye drop of 10 μl) = 1 mg, 6 h, read-out: CDO concentrations Optic nerve): 2650 ng/g
concentration at 0.25 h ([1]; plasma, rat, topical eye 10 mg/ml (eye drop of 10 μl) = 0.1 mg, 0.25 h, read-out: CDO concentrations Plasma): 10 ng/g
concentration at 1 h ([1]; plasma, rat, topical eye 10 mg/ml (eye drop of 10 μl) = 0.1 mg, 1 h, read-out: CDO concentrations Plasma): 10 ng/g
concentration at 3 h ([1]; plasma, rat, topical eye 10 mg/ml (eye drop of 10 μl) = 0.1 mg, 3 h, read-out: CDO concentrations Plasma): 80 ng/g
concentration at 0.25 h ([1]; plasma, rat, topical eye 100 mg/ml (eye drop of 10 μl) = 1 mg, 0.25 h, read-out: CDO concentrations Plasma): 220 ng/g
concentration at 1 h ([1]; plasma, rat, topical eye 100 mg/ml (eye drop of 10 μl) = 1 mg, 1 h, read-out: CDO concentrations Plasma): 370 ng/g
concentration at 3 h ([1]; plasma, rat, topical eye 100 mg/ml (eye drop of 10 μl) = 1 mg, 3 h, read-out: CDO concentrations Plasma): 280 ng/g
concentration at 1 h ([1]; retina/choroid, rat, topical eye 100 mg/ml (eye drop of 10 μl) = 1 mg, 1 h, read-out: CDO concentrations Retina/Choroid): 1520 ng/g
concentration at 3 h ([1]; retina/choroid, rat, topical eye 100 mg/ml (eye drop of 10 μl) = 1 mg, 3 h, read-out: CDO concentrations Retina/Choroid): 1570 ng/g
CDO amounts in target tissues (optic nerve and retina choroids) 6 hours after topical ocular administration ([1]; rat, 6 hours after topical ocular administration): could be detected
CDO concentrations Optic nerve [1, 4]: —
CDO concentrations Retina [1, 4]: —
CDO concentrations Optic nerve [1, 5]: —
CDO concentrations Retina [1, 5]: —
CDO concentrations Retina ([1]; rat, oral 50 mg/Kg = 10 mg, 3 h): —
CDO concentrations Retina ([1]; rat, oral 50 mg/Kg = 10 mg, 6 h): —
amount of CDO orally administered showing equivalent levels in retina to 1 mg CDO instilled onto the eye surface ([1]; rat, single dose): 40 to 150 mg
CDO concentrations Retina ([1]; rat, topical eye 10 mg/ml (eye drop of 10 μl) = 0.1 mg, 1 h): —
CDO concentrations Optic nerve [1, 6]: —
CDO concentrations Retina [1, 6]: —
CDO concentrations Retina ([1]; rat, topical eye 10 mg/ml (eye drop of 10 μl) = 0.1 mg, 6 h): —
plasmatic levels after topical eye administration ([1]; rats, topical eye administration): low plasmatic levels
concentration at 0.25 h [2, 7]: 36.5 µg/g
concentration at 1 h [2, 7]: 8.13 µg/g
concentration at 3 h [2, 7]: 2.32 µg/g
concentration at 0.25 h [2, 8]: 25.2 µg/g
concentration at 1 h [2, 8]: 15.8 µg/g
concentration at 3 h [2, 8]: 2.67 µg/g
concentration at 0.25 h [2, 9]: 4.39 µg/g
concentration at 1 h [2, 9]: 3.48 µg/g
concentration at 3 h [2, 9]: 0.27 µg/g
concentration at 0.25 h [2, 10]: 4.05 µg/g
concentration at 1 h [2, 10]: 2.42 µg/g
concentration at 3 h [2, 10]: 1.56 µg/g
Retinal vascularity (fluorescence microscopy, Evans Blue) [3]: well preserved retinas, with well-defined vessels with no evidence of vascular damages

Reference: US20200390729A1, “OPHTHALMIC TOPICAL COMPOSITION COMPRISING DOBESILIC ACID FOR TREATING DISEASES OF THE POSTERIOR SEGMENT OF THE EYE” (LABORATORIOS SALVAT, S.A., priority 2017, published 2020)
